# Reference: patent publication US8916149B2, “Preventing and treating sepsis” (University of Rochester, priority 2008, dated 2014)
# T1: β3 integrins (Homo sapiens, UniProt P05106)
# T1 sequence (P05106 27-788): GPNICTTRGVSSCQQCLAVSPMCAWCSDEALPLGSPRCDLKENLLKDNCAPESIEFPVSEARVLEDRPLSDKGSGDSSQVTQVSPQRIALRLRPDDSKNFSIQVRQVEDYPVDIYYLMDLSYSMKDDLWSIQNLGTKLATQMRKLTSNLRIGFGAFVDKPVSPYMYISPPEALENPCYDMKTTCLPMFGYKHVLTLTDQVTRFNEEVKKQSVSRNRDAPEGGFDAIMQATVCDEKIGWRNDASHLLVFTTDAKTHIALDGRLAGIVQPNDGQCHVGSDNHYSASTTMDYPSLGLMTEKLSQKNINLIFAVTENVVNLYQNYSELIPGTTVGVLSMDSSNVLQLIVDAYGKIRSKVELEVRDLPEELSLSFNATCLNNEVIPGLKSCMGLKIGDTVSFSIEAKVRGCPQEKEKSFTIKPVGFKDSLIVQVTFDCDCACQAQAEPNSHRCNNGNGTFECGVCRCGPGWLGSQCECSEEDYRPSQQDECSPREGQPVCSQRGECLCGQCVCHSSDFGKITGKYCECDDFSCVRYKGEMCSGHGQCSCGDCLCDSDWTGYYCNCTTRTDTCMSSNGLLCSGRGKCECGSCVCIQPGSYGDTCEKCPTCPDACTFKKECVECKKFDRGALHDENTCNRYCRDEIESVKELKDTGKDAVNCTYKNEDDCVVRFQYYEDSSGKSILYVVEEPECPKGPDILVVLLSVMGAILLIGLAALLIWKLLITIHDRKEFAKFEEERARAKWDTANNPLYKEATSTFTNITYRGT
# B1: RGE-APC: rhAPC mutant with the RGD sequence mutated to RGE (Glu in place of Asp-222) (protein)
# chain 1: ANSFLEELRHSSLERECIEEICDFEEAKEIFQNVDDTLAFWSKHVDGDQCLVLPLEHPCASLCCGHGTCIDGIGSFSCDCRSGWEGRFCQREVSFLNCSLDNGGCTHYCLEEVGWRRCSCAPGYKLGDDLLQCHPAVKFPCGRPWKRMEKKRSHL
# chain 2: LIDGKMTRRGESPWQVVLLDSKKKLACGAVLIHPSWVLTAAHCMDESKKLLVRLGEYDLRRWEKWELDLDIKEVFVHPNYSKSTTDNDIALLHLAQPATLSQTIVPICLPDSGLAERELNQAGQETLVTGWGYHSSREKEAKRNRTFVLNFIKIPVVPHNECSEVMSNMVSENMLCAGILGDRQDACEGDSGGPMVASFHGTWFLVGLVSWGEGCGLLHNYGVYTKVSRYLDWIHGHIRDKEAPQKSWAP
# B2: Gla-less APC: mutant form of APC that lacks the EPCR binding motif (Enzyme Research Lab.) (protein)
# chain: SKHVDGDQCLVLPLEHPCASLCCGHGTCIDGIGSFSCDCRSGWEGRFCQREVSFLNCSLDNGGCTHYCLEEVGWRRCSCAPGYKLGDDLLQCHPAVKFPCGRPWKRMEKKRSHLLIDGKMTRRGDSPWQVVLLDSKKKLACGAVLIHPSWVLTAAHCMDESKKLLVRLGEYDLRRWEKWELDLDIKEVFVHPNYSKSTTDNDIALLHLAQPATLSQTIVPICLPDSGLAERELNQAGQETLVTGWGYHSSREKEAKRNRTFVLNFIKIPVVPHNECSEVMSNMVSENMLCAGILGDRQDACEGDSGGPMVASFHGTWFLVGLVSWGEGCGLLHNYGVYTKVSRYLDWIHGHIRDKEAPQKSWAP
# What was measured:
# [1] = tested on: human neutrophils; assay: Random migration of neutrophils on FN-coated cover glass (live-cell imaging); format: cell-based; conditions: for reversal of the inhibitory effect of rhAPC on neutrophil migration: agonists of PAR-1 and S1P1; for random migration of neutrophils on FN induced by fMLP: 10 μg/ml protein
# Experimental: Delta T dishes were coated with human FN (50 μg/ml, BD Biosciences, San Jose, Calif.) for overnight at 4° C. and then for 4 h at room temperature. Plates were then rinsed with L-15 media. […] The cells were then added to FN-coated dishes in 1.5 ml of L-15 with 2 mg/ml of glucose. For neutrophil live cell staining, 2 μM Green Cell Tracker CMFDA (5-chloromethylfluorescein diacetate; Molecular Probes, Carlsbad, Calif.) was used. Temperature was maintained at 37° C. throughout the experiment using a FCS2 live-cell imaging chamber (Bioptechs, Butler, Pa.). Images were acquired for 30 to 60 minutes under a 10× objective lens using a Nikon TE-2000U inverted microscope. Phase contrast images were acquired every 5 seconds and fluorescence images every 30 seconds. Cell paths were traced using MetaVue™ imaging software (Molecular Devices Corporation, Downingtown, Pa.).
# Random migration was investigated by adding fMLP or IL-8 to media at a final concentration of 10^−8M and analyzed by manually tracing the outline of each cell in selected frames (i.e., at 50 second intervals). The x and y coordinates of each cell were measured using ImageJ software and were corrected so that the starting position was x=0 and y=0.
# The time-lapsed images of migrating neutrophils were taken under phase contrast microscopy. Each image was thresholded and binarized based on brightness to define the centroids of the neutrophils. The closest centroids between consecutive images were linked as a trajectory under the assumption that these centroids were made by the same neutrophil. The maximum distance between the closest centroids was also defined to preclude the artifacts due to cells moving into and out of the field of view.
# [2] = tested on: septic mice; conditions: 'mid-grade' sepsis (CLP), 200 μg i.v. 12 hours before and after CLP
# Experimental: (§1) 200 μg of the RGD peptide or PBS was given 12 hours before and after CLP via i.v. injection (n=20 per group). […] 200 μg of the RGD peptide or PBS was given via i.v. injection before receiving […] of LPS (i.p.) (n=10 per group). The statistical significance of mortality was determined by the Kaplan-Meyer log-rank test.
# CLP was used to induce acute septic peritonitis as described (Rhee et al., J Surg Res 115:74 (2003)). Briefly, mice (C57BL/6, 6-8 weeks) were anesthetized using inhaled Isoflurane, a midline incision (approximately 1 cm) was made below the diaphragm, the cecum was […], ligated approximately […] distal and then punctured through and through with a 22-gauge needle. Cecum was gently squeezed to excise its contents. Sham animals underwent the same procedure with no ligation or puncture. The abdominal incision was then closed in layers with Ethilon 6.0 suture. Mice were resuscitated with 1.0 ml of Ringer's solution via subcutaneous injection. Animals recovered under a heat lamp for approximately 30 minutes and were allowed food and water ad lib.
# [3] = biological target: β1 integrins (Homo sapiens, UniProt P05556); conditions: cited from earlier work
# [4] = tested on: mice challenged with an LD90 of LPS; conditions: LPS at LD90, single dose 200 μg i.v.; control 90%
# Experimental: as §1
# In order to examine whether the RGD peptide alters mortality in ‘high-grade’ sepsis, 90% mortality was induced by endotoxemia.
# [5] = biological target: T1, β3 integrins; conditions: cited from earlier work
# [6] = tested on: human neutrophils; assay: Neutrophil adhesion assay on immobilized fibronectin (FN); format: cell-based; conditions: 10 μg/ml protein
# Experimental: The adhesion assay was carried out essentially as described (Vorup-Jensen et al., PNAS 102:1614 (2005)). Cover slips were coated with FN in coating buffer (150 mM NaCl/20 mM Tris.HCl, pH 9.0) for over night at 4° C. and for 4 hours at room temperature. Residual binding sites were blocked by incubation of the wells with 0.05% (wt/vol) polyvinylpyrrolidone in PBS for 30 minutes at room temperature. […] The cover slips were aspirated, and washed with L15 medium. […] Cells (250 μl) were then immediately added, and further incubated at 37° C. for 15 minutes. Unbound cells were then washed with warm L15 medium. The bound cells were then fixed with formaldehyde. For each experimental condition from three independent donors, five random phase-contrast images were obtained, and the number of cells in each well was scored from printed micrographs.
# [7] = biological target: T2, α3β1 (Homo sapiens, UniProt P05556+P26006); assay: Solid phase integrin ligand binding assay; conditions: 1 mM Mn2+, 1 mM Ca2+, 1 mM Mg2+
# T2 construct: purchased US Biological, Swampscott, Mass
# Experimental: (§2) The solid phase binding assay was performed using purified soluble human α3β1, α5β1, and αVβ3 (US Biological, Swampscott, Mass.). Two (2) μg/ml of soluble integrins were added to microtiter wells for capture with immobilized monoclonal antibody against β1 or β3 subunits (mAb TS2/6 for β1 and mAb BB10 (Chemicon, Temecula, Calif.) for β3 integrins). […] After washing, bound APC was chromogenically detected by peroxidase-streptavidin conjugate anti-PC (Diapharma, West Chester, Ohio) or chromogenic substrate S-2366 (Diapharma, West Chester, Ohio). To minimize dissociation, all wash buffers contained 1 mM Mn^2+, and <15 minutes elapsed between the end of binding and beginning of color development. Functional blocking antibodies for integrins were from Chemicon (Temecula, Calif.).
# (§3) Among the neutrophil integrins that recognize the RGD motif, α3β1, α5β1, and αVβ3 are key in regulating neutrophil chemotaxis (Yauch et al., Mol. Biol. Cell 9:2751 (1998); Burns et al., J. Immunol. 166:4644 (2001); Sixt et al., J. Biol. Chem. 276:18878 (2001)). To test whether APC can bind directly to the integrins, an ELISA-like solid phase receptor-binding assay was performed (FIG. 2E). Soluble α3β1, α5β1, and αVβ3 were captured onto microtiter wells using mAbs specific for β1 or β3.
# [8] = biological target: T3, αVβ3 (Homo sapiens, UniProt P05106+P06756); assay: Solid phase integrin ligand binding assay; conditions: 1 mM Mn2+, 1 mM Ca2+, 1 mM Mg2+
# T3 construct: purchased US Biological, Swampscott, Mass
# Experimental: as §2, §3
# [9] = biological target: T4, α5β1 (Homo sapiens, UniProt P05556+P08648); assay: Solid phase integrin ligand binding assay; conditions: 1 mM Mn2+, 1 mM Ca2+, 1 mM Mg2+
# T4 construct: purchased US Biological, Swampscott, Mass
# Experimental: as §2, §3
# [10] = biological target: T5, hEPCR-mCFP and β1-mYFP (Homo sapiens, UniProt P05556+Q9UNN8); assay: Dynamic FRET (TIRF) between hEPCR-mCFP and β1-mYFP in HEK293 cells; format: cell-based
# T5 construct: expressed in transfected cells; host or cells: HEK293
# Experimental: Dynamic FRET imaging was carried out using a Nikon Eclipse TE2000-U microscope (Nikon, Melville, N.Y.) equipped with a Dual-View (Optical Insights, Tucson, Ariz.) and CFP/YFP dual-band filter set (Chroma, Rockingham, Vt.). TIRF imaging was performed with a white light TIRF aperture diaphragm and a 100×TIRF 1.49 NA oil immersion objective coupled to a QuantEM EMCCD (Roper Scientific, Tucson, Ariz.). The microscope was controlled by NIS element software (Nikon, Melville, N.Y.) and data analysis was performed with AutoDeblur (Autoquant Imaging, Troy, N.Y.) by the sensitized emission method (Gordon et al., Biophys. J. 74:2702 (1998)). 48 hours after co-transfection with hEPCR-mCFP and β1-mYFP DNA construct in Delta T dish (Fisher Scientific, Pittsburgh, Pa.), HEK293 cells were washed with PBS and then 1 ml L15 medium supplemented with 2 mg/ml D-glucose. Cells were equilibrated for about 10 minutes at 37° C. in a FCS2 live cell imaging chamber (Bioptechs, Butler, Pa.). […]
# Therefore, it was tested whether the anti-EPCR antibody relieved the rhAPC-induced inhibition of neutrophil adhesion on FN. […] Since the ligand will only bind to cell surface receptors, optical measurements were confined to the plasma membrane using through the objective total internal reflection fluorescence (TIRF).
# T3 sequence (P06756 31-889 limits assumed, one chain of several): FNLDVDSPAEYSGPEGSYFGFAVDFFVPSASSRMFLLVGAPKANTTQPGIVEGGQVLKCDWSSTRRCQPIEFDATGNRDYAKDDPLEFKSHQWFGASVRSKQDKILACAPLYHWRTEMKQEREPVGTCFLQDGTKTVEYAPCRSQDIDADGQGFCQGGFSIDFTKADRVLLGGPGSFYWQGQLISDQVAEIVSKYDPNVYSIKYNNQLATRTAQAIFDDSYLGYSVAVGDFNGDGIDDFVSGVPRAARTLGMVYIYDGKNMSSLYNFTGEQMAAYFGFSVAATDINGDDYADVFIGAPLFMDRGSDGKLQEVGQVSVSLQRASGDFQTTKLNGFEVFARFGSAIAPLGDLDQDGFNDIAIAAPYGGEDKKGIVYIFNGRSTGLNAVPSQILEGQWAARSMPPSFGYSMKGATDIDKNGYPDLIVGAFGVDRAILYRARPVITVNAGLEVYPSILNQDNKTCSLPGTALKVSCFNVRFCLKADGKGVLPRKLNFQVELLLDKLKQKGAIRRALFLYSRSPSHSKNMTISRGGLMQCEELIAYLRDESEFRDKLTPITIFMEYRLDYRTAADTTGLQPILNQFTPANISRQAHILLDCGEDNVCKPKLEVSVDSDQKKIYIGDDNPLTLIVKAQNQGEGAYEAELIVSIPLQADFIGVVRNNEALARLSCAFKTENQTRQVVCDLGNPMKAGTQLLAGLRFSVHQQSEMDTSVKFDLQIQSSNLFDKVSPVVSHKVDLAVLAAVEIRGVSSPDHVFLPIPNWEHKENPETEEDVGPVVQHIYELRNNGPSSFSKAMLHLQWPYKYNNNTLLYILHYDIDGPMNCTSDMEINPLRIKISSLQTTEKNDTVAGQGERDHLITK
# T3 sequence (P06756 891-1048 partner limits assumed, one chain of several): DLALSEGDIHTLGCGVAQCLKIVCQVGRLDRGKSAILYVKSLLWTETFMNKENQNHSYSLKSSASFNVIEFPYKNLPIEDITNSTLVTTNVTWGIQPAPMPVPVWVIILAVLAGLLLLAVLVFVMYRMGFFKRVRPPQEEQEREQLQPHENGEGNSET
# T2 sequence (P26006 33-872 limits assumed): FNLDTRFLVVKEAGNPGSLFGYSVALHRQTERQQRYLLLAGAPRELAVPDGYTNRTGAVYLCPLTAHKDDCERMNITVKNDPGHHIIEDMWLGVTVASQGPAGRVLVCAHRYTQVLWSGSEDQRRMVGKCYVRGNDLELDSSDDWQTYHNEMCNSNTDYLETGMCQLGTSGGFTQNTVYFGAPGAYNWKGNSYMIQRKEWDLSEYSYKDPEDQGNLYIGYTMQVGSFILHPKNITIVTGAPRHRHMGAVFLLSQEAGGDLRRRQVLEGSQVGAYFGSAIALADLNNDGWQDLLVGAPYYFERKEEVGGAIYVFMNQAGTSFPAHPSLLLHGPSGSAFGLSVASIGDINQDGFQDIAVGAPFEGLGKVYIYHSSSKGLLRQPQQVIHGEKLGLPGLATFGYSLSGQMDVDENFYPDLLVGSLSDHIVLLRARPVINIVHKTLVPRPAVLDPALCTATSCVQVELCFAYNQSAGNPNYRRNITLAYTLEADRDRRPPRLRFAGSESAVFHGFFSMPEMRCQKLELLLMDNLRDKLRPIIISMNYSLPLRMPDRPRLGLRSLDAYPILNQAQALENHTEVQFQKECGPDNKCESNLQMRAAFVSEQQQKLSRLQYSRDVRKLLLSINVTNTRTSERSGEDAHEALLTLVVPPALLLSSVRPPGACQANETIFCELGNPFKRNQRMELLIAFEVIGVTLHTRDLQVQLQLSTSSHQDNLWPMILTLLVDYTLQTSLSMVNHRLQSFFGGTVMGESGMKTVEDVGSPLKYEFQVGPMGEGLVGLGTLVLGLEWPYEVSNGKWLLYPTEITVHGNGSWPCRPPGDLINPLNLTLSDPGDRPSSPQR
# T2 sequence (P26006 876-1051 partner limits assumed): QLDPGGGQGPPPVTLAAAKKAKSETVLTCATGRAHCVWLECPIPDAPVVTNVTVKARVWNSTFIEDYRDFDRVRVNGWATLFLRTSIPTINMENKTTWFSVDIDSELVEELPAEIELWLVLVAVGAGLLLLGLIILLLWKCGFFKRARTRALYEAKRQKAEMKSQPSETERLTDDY
# T2 sequence (P05556 21-798): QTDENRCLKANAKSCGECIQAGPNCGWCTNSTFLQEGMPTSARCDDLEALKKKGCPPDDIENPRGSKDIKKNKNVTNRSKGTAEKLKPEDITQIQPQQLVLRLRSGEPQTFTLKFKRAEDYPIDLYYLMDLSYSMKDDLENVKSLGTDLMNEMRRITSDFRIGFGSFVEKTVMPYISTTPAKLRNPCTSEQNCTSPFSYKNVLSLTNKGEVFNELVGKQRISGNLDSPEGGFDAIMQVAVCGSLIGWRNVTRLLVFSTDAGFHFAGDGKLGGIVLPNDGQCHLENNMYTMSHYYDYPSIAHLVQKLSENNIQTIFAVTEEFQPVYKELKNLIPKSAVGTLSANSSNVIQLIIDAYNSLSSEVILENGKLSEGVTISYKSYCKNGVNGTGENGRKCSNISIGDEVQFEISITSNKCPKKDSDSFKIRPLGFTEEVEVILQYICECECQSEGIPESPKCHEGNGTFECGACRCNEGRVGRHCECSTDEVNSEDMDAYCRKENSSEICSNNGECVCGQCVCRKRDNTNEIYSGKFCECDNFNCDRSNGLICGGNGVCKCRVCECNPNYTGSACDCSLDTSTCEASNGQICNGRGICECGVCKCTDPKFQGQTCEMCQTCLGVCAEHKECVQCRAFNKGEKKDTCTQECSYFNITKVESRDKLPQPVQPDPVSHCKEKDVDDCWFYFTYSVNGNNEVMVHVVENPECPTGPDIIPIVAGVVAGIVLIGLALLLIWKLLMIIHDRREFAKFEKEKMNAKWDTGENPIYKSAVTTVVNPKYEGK
# Sequence of β1 integrins (P05556 21-798): as above
# T4 sequence (P08648 42-894 limits assumed): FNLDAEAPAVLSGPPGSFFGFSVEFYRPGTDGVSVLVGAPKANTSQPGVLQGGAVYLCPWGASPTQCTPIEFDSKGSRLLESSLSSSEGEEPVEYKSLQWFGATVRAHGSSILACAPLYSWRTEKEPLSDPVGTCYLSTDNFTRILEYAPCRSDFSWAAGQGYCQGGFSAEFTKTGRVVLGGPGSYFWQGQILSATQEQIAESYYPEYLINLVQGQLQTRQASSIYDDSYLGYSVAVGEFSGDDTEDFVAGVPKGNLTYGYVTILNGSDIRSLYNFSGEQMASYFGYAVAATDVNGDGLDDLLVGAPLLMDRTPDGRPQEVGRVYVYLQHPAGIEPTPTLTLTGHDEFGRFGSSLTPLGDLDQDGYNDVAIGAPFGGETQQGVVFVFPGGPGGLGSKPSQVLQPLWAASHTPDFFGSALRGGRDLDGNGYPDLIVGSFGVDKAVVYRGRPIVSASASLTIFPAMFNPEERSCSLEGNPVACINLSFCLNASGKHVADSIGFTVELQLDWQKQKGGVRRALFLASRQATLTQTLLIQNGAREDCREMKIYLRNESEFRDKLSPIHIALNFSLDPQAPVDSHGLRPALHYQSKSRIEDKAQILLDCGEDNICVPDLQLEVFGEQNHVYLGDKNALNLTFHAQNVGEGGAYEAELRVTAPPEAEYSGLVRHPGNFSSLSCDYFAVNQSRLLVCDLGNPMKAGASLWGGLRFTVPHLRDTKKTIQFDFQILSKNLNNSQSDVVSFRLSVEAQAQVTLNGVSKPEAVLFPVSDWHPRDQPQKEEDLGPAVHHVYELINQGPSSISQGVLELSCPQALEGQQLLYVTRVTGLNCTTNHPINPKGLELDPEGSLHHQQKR
# T4 sequence (P08648 895-1049 partner limits assumed): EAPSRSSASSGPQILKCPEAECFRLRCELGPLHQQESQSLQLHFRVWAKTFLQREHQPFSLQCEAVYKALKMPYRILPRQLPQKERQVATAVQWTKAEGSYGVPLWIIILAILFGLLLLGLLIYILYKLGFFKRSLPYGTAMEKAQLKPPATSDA
# T4 sequence (P05556 21-798): as the sequence (P05556 21-798) above
# T5 sequence (Q9UNN8 18-238): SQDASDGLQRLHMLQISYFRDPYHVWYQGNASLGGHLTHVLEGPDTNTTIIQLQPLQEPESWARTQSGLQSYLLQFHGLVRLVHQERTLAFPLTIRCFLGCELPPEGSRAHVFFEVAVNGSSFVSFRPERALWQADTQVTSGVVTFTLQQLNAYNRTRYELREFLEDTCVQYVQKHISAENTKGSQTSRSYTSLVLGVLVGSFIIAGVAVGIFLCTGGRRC
# T5 sequence (P05556 21-798): as the sequence (P05556 21-798) above
molecule,measurement,setting,value
"FC(F)(F)c1cccc(-c2noc(-c3cc(-c4ccccc4)c(C(F)(F)F)s3)n2)c1 [SEW2871, reference compound]",reversal of the inhibitory effect of rhAPC on neutrophil migration,[1],did not reverse
SFLLRNPNDKYEPF (Aritficial Sequence) [reference compound],reversal of the inhibitory effect of rhAPC on neutrophil migration,[1],did not reverse
acetyl-c[(penicillamine)-O-methyltyrosine-ARGDN(tetrahydroisoquinoline-3-carboxylic acid)C]—NH2 [RGD peptide],7-day mortality,[2],no significant change
same,time of survival,[2],reproducibly prolonged
same,affinity to β1 integrins,[3],high affinity
same,mortality,[4],60%
same,affinity to β3 integrins,[5],high affinity
"rhPC: the zymogen protein C, not activated [reference compound]",random migration of neutrophils on FN induced by fMLP,[1],failed to block
same,fMLP-induced adhesion of human neutrophils to immobilized FN,[6],failed to block
B1,direct binding to soluble α3β1,[7],significantly less
same,direct binding to soluble αVβ3,[8],significantly less
same,direct binding to soluble α5β1,[9],significantly less
same,random migration of neutrophils on FN induced by fMLP,[1],had no effect
B2,FRET efficiency between EPCR-mCFP and β1-mYFP,[10],No obvious FRET change
same,fMLP-induced adhesion of human neutrophils to immobilized FN,[6],"inhibited adhesion to a slightly less, but similar, degree as the wild type protein"
